Measurements from PubChem BioAssay (NCI).
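Five concentrations, 48 hours, 96-well plates. The concentration for 50% growth inhibition is given as GI50. TGI: concentration producing complete growth inhibition.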

Legend:
Experiment in all cases: NCI anticancer screen, dose series, 48 h
786-0 renal = tested on: 786-0 renal
SF-295 CNS = tested on: SF-295 CNS
SK-MEL-2 melanoma = tested on: SK-MEL-2 melanoma
PC-3 prostate = tested on: PC-3 prostate
MDA-MB-231 breast = tested on: MDA-MB-231 breast
TK-10 renal = tested on: TK-10 renal
DU-145 prostate = tested on: DU-145 prostate
NCI-H460 lung = tested on: NCI-H460 lung

| Compound | TGI (786-0 renal) [µM] | TGI (SF-295 CNS) [µM] | TGI (SK-MEL-2 melanoma) [µM] | TGI (PC-3 prostate) [µM] | TGI (MDA-MB-231 breast) [µM] | TGI (TK-10 renal) [µM] | TGI (DU-145 prostate) [µM] | TGI (NCI-H460 lung) [µM] | GI50 (786-0 renal) [µM] | GI50 (SF-295 CNS) [µM] | GI50 (SK-MEL-2 melanoma) [µM] | GI50 (PC-3 prostate) [µM] | GI50 (MDA-MB-231 breast) [µM] | GI50 (TK-10 renal) [µM] | GI50 (NCI-H460 lung) [µM] | GI50 (DU-145 prostate) [µM] |
| --- | --- | --- | --- | --- | --- | --- | --- | --- | --- | --- | --- | --- | --- | --- | --- | --- |
| CCCCCC/C=C\CCCCCCCCC(=O)c1cccc(OC)c1OC | > 100 | > 100 | > 100 | > 100 | > 100 | > 100 | > 100 | – | – | – | – | – | – | – | – | – |
| Cc1noc(NC(=O)Nc2ccccc2F)c1C#N | > 47.1 | > 100 | > 54.9 | > 41.3 | > 33.5 | > 45.1 | > 100 | > 34.2 | – | – | – | – | – | – | – | – |
| CN1CCN(c2c(F)cc(NC3=C(Cl)C(=O)c4ncccc4C3=O)cc2F)CC1 | 3.44 | 33.5 | 28 | 21.1 | 12.3 | 3.67 | 26.2 | 36 | 1.84 | 17.2 | 13.7 | 5.87 | 3.47 | 1.93 | 18.1 | 12.7 |
| N#CC(C#N)=C/C=C(\Sc1ccc(Cl)cc1)c1ccc(F)cc1 | 3.07 | 9.94 | > 63.6 | 6.19 | 6.25 | 3.61 | > 33.6 | > 100 | 0.42 | 2.74 | 4.15 | 0.496 | 1.84 | 0.857 | 2.31 | 0.525 |
| COc1cc(OC)c(OC)cc1/C=C/c1nc2ccccc2s1 | > 100 | > 100 | > 100 | > 100 | > 100 | > 100 | > 100 | > 100 | – | – | – | – | – | – | – | – |
| C=C(CN1CCc2[nH]c3ccc(F)cc3c2C1)c1ccc(C(=O)Nc2ccccc2N)cc1 | 3.59 | 11.8 | 8.14 | 52.3 | 11.3 | 16.2 | 3.94 | 17.2 | 0.56 | 3.31 | 1.07 | 4.32 | 2.82 | 2.58 | 3.98 | 1.66 |
| S=C1SCN(Cc2ccccc2)CN1Cc1ccco1 | 14.4 | > 100 | 11.9 | 61.6 | 12.3 | 18.8 | 9.61 | 22.3 | 3.5 | > 100 | 3.04 | 5.75 | 3.17 | 5.79 | 5.25 | 2.85 |
| COc1ccccc1CNCCN1C(=O)c2ccc3c4c(ccc(c24)C1=O)C(=O)N(CCNCc1ccccc1OC)C3=O | 0.37 | – | 2.24 | 0.963 | 0.817 | 0.735 | 1.11 | 0.458 | 0.187 | – | 0.712 | 0.317 | 0.277 | 0.263 | 0.208 | 0.321 |
| ClCCOCCn1cnc2c(Cl)nc(Cl)nc21 | 44 | 29.3 | – | 31.5 | 28.3 | 60.6 | 21.9 | 19.2 | 19.4 | 14 | – | 14 | 14.4 | 18.5 | 5.57 | 10.2 |
